Here are results for 16 sequences from PMC7753147, “High-throughput determination of protein affinities using unmodified peptide libraries in nanomolar scale” (iScience, 2020).

The subject of one assay is gephE. Nature of the assay: µSPOT peptide microarray binding assay with recombinant gephE.
For another assay, the system named is native geph. As to the kind of experiment: µSPOT peptide microarray binding assay with native geph from mouse brain lysate.
A further assay deals with FL-geph. As to the kind of experiment: µSPOT peptide microarray binding assay with full-length geph.
Where [1] appears, read: µSPOT full positional scan of GlyRβ 15-mer DLRSNDFSIVGSLPR, intensity normalised to wild-type sequence (= 1).
Setting [2] is: µSPOT full positional scan of GlyRβ 15-mer DLRSNDFSIVGSLPR, native geph, intensity normalised to wild-type sequence (= 1).
Setting [3] is: µSPOT peptide microarray, GlyRβ full positional scan, recombinant gephE, intensity normalised to wild-type sequence DLRSNDFSIVGSLPR (=1).
Setting [4] is: µSPOT peptide microarray, GlyRβ full positional scan, native geph from mouse brain lysate, intensity normalised to wild-type sequence DLRSNDFSIVGSLPR (=1).
Where [5] appears, read: µSPOT peptide microarray, GlyRβ full positional scan, intensity normalised to wild-type sequence DLRSNDFSIVGSLPR (=1).

Consider “DLRSNDFSIVGSFPR [GlyRβ_Full_Positional_Scan_247]”, for which the “gephE Binding Intensity [norm.]” value in the assay with gephE (setting [1]) was 0.9 norm. Moreover, in the assay with native geph (setting [2]), the “Native geph Binding Intensity [norm.]” value is 0.96 norm. Moreover, the “Fl-geph Binding Intensity [norm.]” value in the assay with FL-geph (setting [1]) is recorded as 1.16 norm.
Consider “WLRSNDFSIVGSLPR [GlyRβ_Full_Positional_Scan_008]”, for which the “gephE Binding Intensity [norm.]” value in the assay with gephE (setting [3]) came out at 0.91 norm. Further, in the assay on native geph (setting [4]), the “Native geph Binding Intensity [norm.]” value amounted to 0.67 norm. Further, the “Fl-geph Binding Intensity [norm.]” value in the assay on FL-geph (setting [5]) came to 0.86 norm.
Taken in the same sequence, the figures for “DGRSNDFSIVGSLPR [GlyRβ_Full_Positional_Scan_022]” were 0.98 norm, 0.92 norm and 0.94 norm.
For “DLRSNDFSIVGSLWR [GlyRβ_Full_Positional_Scan_268]”, the “gephE Binding Intensity [norm.]” value in the assay on gephE (setting [1]) was determined as 0.61 norm. Further, the “Native geph Binding Intensity [norm.]” value in the assay on native geph (setting [2]) was found to be 0.32 norm. In the assay on FL-geph (setting [1]), the “Fl-geph Binding Intensity [norm.]” value was found to be 0.72 norm.
For “DLRSNDFSIVGSVPR [GlyRβ_Full_Positional_Scan_246]”, in the assay with gephE (setting [1]), the “gephE Binding Intensity [norm.]” value came to 0.92 norm. Moreover, the “Native geph Binding Intensity [norm.]” value in the assay with native geph (setting [2]) is reported as 0.82 norm. The “Fl-geph Binding Intensity [norm.]” value with FL-geph (setting [1]) was found to be 1.06 norm.
Regarding “DKRSNDFSIVGSLPR [GlyRβ_Full_Positional_Scan_034]”, in the assay on gephE (setting [3]), the “gephE Binding Intensity [norm.]” value stood at 0.88 norm. In the assay with native geph (setting [4]), the “Native geph Binding Intensity [norm.]” value is on record as 0.53 norm. Further, the “Fl-geph Binding Intensity [norm.]” value with FL-geph (setting [5]) stood at 0.94 norm.
For “DLRSNDFSIKGSLPR [GlyRβ_Full_Positional_Scan_194, GlyR β 414-428 variant V423K]”, the “gephE Binding Intensity [norm.]” value in the assay with gephE (setting [3]) was determined as 0.5 norm. Moreover, in the assay on native geph (setting [4]), the “Native geph Binding Intensity [norm.]” value stood at 0.16 norm. In addition, the “Fl-geph Binding Intensity [norm.]” value with FL-geph (setting [5]) is recorded as 0.63 norm.
Taken in the same sequence, the figures for “DLRSNCFSIVGSLPR [GlyRβ_Full_Positional_Scan_117]” were 0.81 norm, 0.64 norm and 0.8 norm.
Regarding “DLRSNDFSIVGSLMR [GlyRβ_Full_Positional_Scan_278]”, the “gephE Binding Intensity [norm.]” value in the assay with gephE (setting [1]) was 0.6 norm. Besides, the “Native geph Binding Intensity [norm.]” value with native geph (setting [2]) was 0.44 norm. Moreover, the “Fl-geph Binding Intensity [norm.]” value in the assay on FL-geph (setting [1]) is given as 0.77 norm.
For “DLRENDFSIVGSLPR [GlyRβ_Full_Positional_Scan_071]”, the “gephE Binding Intensity [norm.]” value in the assay with gephE (setting [3]) is 0.93 norm. Moreover, the “Native geph Binding Intensity [norm.]” value with native geph (setting [4]) turned out to be 1.11 norm. Also, the “Fl-geph Binding Intensity [norm.]” value with FL-geph (setting [5]) stood at 0.97 norm.
As for “DLRSNDFSIVGSLPE [GlyRβ_Full_Positional_Scan_291]”, the “gephE Binding Intensity [norm.]” value with gephE (setting [1]) amounted to 0.82 norm. The “Native geph Binding Intensity [norm.]” value with native geph (setting [2]) is listed as 0.49 norm. For the same sequence, the “Fl-geph Binding Intensity [norm.]” value in the assay with FL-geph (setting [1]) was determined as 0.84 norm.
Regarding “DLRSNWFSIVGSLPR [GlyRβ_Full_Positional_Scan_108]”, the “gephE Binding Intensity [norm.]” value with gephE (setting [3]) is reported as 0.79 norm. Further, the “Native geph Binding Intensity [norm.]” value in the assay on native geph (setting [4]) is reported as 0.32 norm. Moreover, in the assay with FL-geph (setting [5]), the “Fl-geph Binding Intensity [norm.]” value came out at 0.65 norm.
On the same counts, the results for “DLRSMDFSIVGSLPR [GlyRβ_Full_Positional_Scan_098]” are 0.92 norm, 0.91 norm and 0.85 norm.
On the same counts, the results for “DLRSNDFSIVFSLPR [GlyRβ_Full_Positional_Scan_207, GlyR β 414-428 variant G424F]” are 0.43 norm, 0.22 norm and 0.54 norm.
Taken in the same sequence, the figures for “DLRSLDFSIVGSLPR [GlyRβ_Full_Positional_Scan_084]” were 0.92 norm, 0.69 norm and 0.86 norm.
For the sequence “DLRSNDFSIVGSAPR [GlyRβ_Full_Positional_Scan_241]”, the “gephE Binding Intensity [norm.]” value in the assay with gephE (setting [1]) turned out to be 0.9 norm. In addition, in the assay on native geph (setting [2]), the “Native geph Binding Intensity [norm.]” value turned out to be 1 norm. Besides, the “Fl-geph Binding Intensity [norm.]” value in the assay with FL-geph (setting [1]) was found to be 1.07 norm.
